Tested on: C57BL/6 mice
Assay: Size of infarction after 90 minutes MCA occlusion (tetrazolium red)
Assay type: in vivo, mouse
Settings: 24 hours after 90 min MCAO; treatment 2.5 hours after MCAO, i.p.; % of contralateral side
Description: Adult (3-5 months old) male C57BL/6 mice were obtained from Charles River Inc. (Saint-Constant, Quebec, Canada). All experimental procedures were approved by the MUHC animal care committee according to the guidelines of the Canadian Council for Animal Care. All animals were allowed free access to water before and after surgery.
Unilateral focal cerebral ischemia was induced by occlusion of the medial cerebral artery (MCA) in the left cerebral hemisphere during 1.5 hours. The MCA occlusions in mice is carried out on ˜30 C57BI/6 mice weighing 20-25 g from an adaptation of a method previously described in rats (Beaulieu, J. M., Kriz, J. and Julien, J. P. ,2002, Brain.Res. 946, 153-161). The animals were anesthetized by administration of ketamine/xylazine mg/kg i.m. To avoid hypothermia, the mouse body temperature was maintained at 37° C. with an infrared heating lamp and warm pad. […]
The area of infarct was estimated in the minimum of animals (5-7 mice) from each experimental group. […] The area of infarct was estimated according to the tetrazolium red staining, calculated in arbitrary units pixels and expressed as a percentage of a total control area, the contralateral non-stroked side of the brain. […] The infarct volume was calculated by summing up the infarct area in multiple slices. […]

In the case of CN(C)c1ccc(O)c2c1C[C@H]1C[C@H]3[C@H](N(C)C)C(O)=C(C(N)=O)C(=O)[C@@]3(O)C(O)=C1C2=O [Minocycline, minocycline], the “% of ischemic area” value is reported as 38.4%.

Reference: patent publication US20040235801A1, “Therapy for stroke” (priority 2001, published 2004)
